Data reported in US6380169B1, “Metal complex containing oligonucleoside cleavage compounds and therapies” (ISIS Pharmaceuticals, Inc., priority 1994, dated 2002).

Tested on: 5′-capped RNA transcript (SEQ ID NO:1)
Experiment: Cleavage of 3′-end-labeled, 5′-capped RNA by Eu[THED]^3+ (single strand or hybridized to complementary 18-mer DNA oligomer)
Assay type: biochemical
Settings: 1 mM Eu[THED]^3+
Experimental: In particular, the ability of Eu[THED]^3+ to hydrolyze 5′-capped RNA was established using a 3′-radiolabeled, 5′-capped RNA transcript.
A target oligonucleotide transcript having the following sequence was used (SEQ ID NO:1):
5′-capped RNA was made from the above amplicon using a T7 MEGAshortscript™ transcription kit (Ambion). 5′-capped transcripts were synthesized in a 20 μL reaction volume containing transcription buffer, T7 RNA polymerase, 7.5 mM rNTPs (except rGTP), 1.9 mM rGTP, 7.5 mM ^7MeGpppG and 200 nM DNA amplicon template. For synthesis of uncapped RNA, the capping dinucleotide was omitted from the reaction and rGTP concentration was increased to 7.5 mM. Reaction mixtures were incubated four hours at 37° C. After the transcription reaction was complete, template DNA was digested with 1 U DNase for 15 minutes at 37° C. Transcripts were purified from unincorporated nucleotides and truncated message by PAGE. The transcripts were visualized by UV back shadowing, and the RNA in the excised gel bands was purified using an RNaid™ kit (Bio 101) which is designed specifically for purification of RNA from polyacrylamide gels. As expected, the product of the 5′-capped RNA reaction contained a band that ran one base slower than the uncapped transcript on a 15% gel.
Transcripts were 3′ end-labeled with ^32p cordycepin triphosphate using terminal transferase. This enzyme prefers DNA as a substrate, but limited labeling of RNA can be achieved with the use of Co^++. As expected, 3′-end-labeling occurred, but the extent of labeling was low.
After preparing 3′-end-labeled, 5′-capped RNA, the ability of Eu[THED]^3+ to cleave (or “decapitate”) the cap structure of the RNA was tested. The reaction conditions were as follows: 1 mM Eu[THED]^3+, 75 μM capped RNA target (˜3 mM with respect to phosphate bonds), 20 mM Tris-HCl, pH 7.0, 100 mM NaCl and 0.2% SDS. A second set of samples further contained 100 μM of an 18-mer DNA oligomer which was complementary to the sequence immediately adjacent to the 5′-cap. […]

[1] = Hybrid (100 μM 18-mer DNA), time 0 min
[2] = Hybrid (100 μM 18-mer DNA), time 15 min
[3] = Hybrid (100 μM 18-mer DNA), time 30 min
[4] = Hybrid (100 μM 18-mer DNA), time 60 min
[5] = Hybrid (100 μM 18-mer DNA), time 120 min
[6] = Hybrid (100 μM 18-mer DNA), time 180 min

For “europium (III) complex of 1,4,7,10-tetrakis (2-hydroxyethyl)-1,4,7,10-tetraazacyclododecane [Eu[THED]]”, the “Capped RNA counts/area” value [1] was 3975 counts/area, the “Decapitated RNA counts/area” value [1] was 1031 counts/area and the “Capped RNA counts/area” value [2] was 4073 counts/area. The “Decapitated RNA counts/area” value [2] was 923 counts/area, the “Capped RNA counts/area” value [3] was 4070 counts/area and the “Decapitated RNA counts/area” value [3] was 1073 counts/area. The “Capped RNA counts/area” value [4] was 3315 counts/area, the “Decapitated RNA counts/area” value [4] was 1583 counts/area and the “Capped RNA counts/area” value [5] was 3509 counts/area. The “Decapitated RNA counts/area” value [5] was 1946 counts/area, the “Capped RNA counts/area” value [6] was 2658 counts/area and the “Decapitated RNA counts/area” value [6] was 1934 counts/area. The “backbone cleavage of RNA” value (either data set (ssRNA and hybrid), 75 μM capped RNA) was “no evidence of backbone cleavage”, the “Capped RNA counts/area” value (ssRNA, time 0 min) was 3266 counts/area and the “Decapitated RNA counts/area” value (ssRNA, time 0 min) was 1130 counts/area. The “Capped RNA counts/area” value (ssRNA, time 30 min) was 3481 counts/area, the “Decapitated RNA counts/area” value (ssRNA, time 30 min) was 1736 counts/area and the “Capped RNA counts/area” value (ssRNA, time 120 min) was 2232 counts/area. The “Decapitated RNA counts/area” value (ssRNA, time 120 min) was 2195 counts/area, the “Capped RNA counts/area” value (ssRNA, time 180 min) was 1982 counts/area and the “Decapitated RNA counts/area” value (ssRNA, time 180 min) was 1949 counts/area.
